# From US10701876B2, “Production of plants using somatic embryogenesis” (MARS, INCORPORATED, priority 2013, dated 2020)
# Tested on: Theobroma cacao L. CCN-10 clones, primary somatic embryo epicotyl/cotyledon explants
# Assay: Direct secondary somatic embryogenesis from primary somatic embryo explants (hormone balance and stressor test)
# Type: cell-based
# Experimental: For the production of secondary embryos, epicotyls are taken from primary somatic embryos with size 1 cm and 40 mg of weight and they were cut in 10-15 pieces and placed into flask with 25 ml of liquid medium for embryogenic induction (Table 5) with some modifications in the experimental design (Table 7) per 5 weeks (step c). The culture is exposed to a light:dark 16:8 photoperiod, at a temperature of 27±2° C. and photosynthetic active radiation (PAR) or photosynthetic photon flux density (PPFD) of 50-190 μmol/m^2 per second. After this period, the somatic embryos in globular stage are transferred into the Petri dish in semi-solid developing media (Table 6) with some modifications (Table 8), with a 21-day culture period in light conditions until the embryos express and develop to the heart or early torpedo stage. Afterward, the cultures were transferred into the Petri dish in the same medium, but without gibberellic acid and with the same culture conditions but in the dark with transferences every 14 days for embryo's maturation. A variety of media were tested to assess the concentrations of plant hormones and stressors to be used in direct secondary somatic embryogenesis, as set forth in the following tables: [table] [table] Cotyledon explants were collected 40 days after induction and were used for study. Samples were fixed with FAA [10% formalin, 5% acetic acid, 50% ethanol (v/v)] per 8 days. The sample must be previously cut into approximately 0.5 to 1.0 mm. Do three (3) washes of 5 minutes each with distilled water or buffer to remove the fixative. […] the material in increasing concentrations of ethanol for at least 1 h of 70%, 85% and 95% at room temperature (incubation time varies with the kind of the material). Since the experiments were established, evaluations have been performed every 14 days, and some dependent variables like: number of calluses formed, number of normal embryos without callus formation, number of abnormal embryos without callus formation, number of pro-embryogenic masses, number of torpedo embryos, number of heart embryos, number of globular embryos, and overall observations. The Dino-Lite digital microscope premier, AM4113/AD4113 series was used for the observations. The experiment was a sequence of mediums where the first was induction medium (Table 7) followed by combination with develop medium (Table 8). The factorial analysis was 5×2, in view of the testing of 2 sucrose concentrations (40 and 80 g/l) and 5 gibberellic acid concentrations (0.0, 0.2, 0.4, 0.6 and 1.0 mg/l), using a completely randomized design.
Structure (SMILES),"quantity of abnormal embryos (1 mg/l gibberellic acid and 40 g/l sucrose in development medium, compared with the other treatments (FIG. 4))",expression of direct somatic embryos (number of embryos produced) (different concentrations of gibberellic acid in combination with 40 g/L or 80 g/L sucrose (FIG. 4)),"normal embryos (sequence of media: induction 1.0 mg/l BAP + 40 g/l sucrose, light, 40 days, then 0.6 mg/l gibberellic acid + 40 g/l sucrose, light, 21 days, then same medium without gibberellic acid, darkness)","direct somatic embryos developed by embryonic regions of cotyledon explants (histological analysis) (induction medium with 1.0 mg/L BAP and 40 g/L sucrose, 40 days of culture (FIG. 5))"
C=C1C[C@]23C[C@@]1(O)CC[C@H]2[C@@]12C=C[C@H](O)[C@@](C)(C(=O)O1)[C@H]2[C@@H]3C(=O)O [gibberellic acid],highest quantity of abnormal embryos,influenced the expression of direct somatic embryos,83.3%,
"c1ccc(CNc2ncnc3nc[nH]c23)cc1 [BAP, 6-benzylaminopurine]",,,,large numbers of direct somatic embryos in globular and heart stage
